Measurements: patent US20240199587A1, “HETEROCYCLIC COMPOUNDS” (Hoffmann-La Roche Inc., priority 2021, published 2024)
pIC50: −log10 of the molar value.

Each molecule was assayed against T1, MAGL (Homo sapiens, UniProt Q99685) (assay: 2-AG assay (MAGL inhibitory activity, hydrolysis of 2-arachidonoylglycerol to arachidonic acid followed by mass spectrometry)). Conditions: 8 μM 2-arachidonoylglycerol, 15 min pre-incubation, 30 min incubation at RT, RapidFire MS readout.
T1 sequence (Q99685 1-303): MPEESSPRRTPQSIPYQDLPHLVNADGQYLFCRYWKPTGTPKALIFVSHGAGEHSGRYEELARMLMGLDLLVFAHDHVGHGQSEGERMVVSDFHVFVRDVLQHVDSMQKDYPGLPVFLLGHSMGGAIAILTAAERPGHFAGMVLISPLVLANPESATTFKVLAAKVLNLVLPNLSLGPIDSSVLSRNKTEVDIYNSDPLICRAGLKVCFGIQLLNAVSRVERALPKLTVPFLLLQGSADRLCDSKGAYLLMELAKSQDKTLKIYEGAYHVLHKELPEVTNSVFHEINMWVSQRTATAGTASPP
Type: biochemical
In short: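 Human MAGL ([…] final) pre-incubated 15 min at RT with compound in 50 mM TRIS, 1 mM EDTA, 0.01% Tween-20, 2.5% DMSO; 8 μM 2-AG then added for 30 min at RT. Acetonitrile quench with d8-arachidonic acid; arachidonic acid measured by RapidFire SPE–MS/MS, activity from arachidonic acid/d8 ratio.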

Q: `NC(=O)C1CC(F)(F)CCN1c1ccc(C2CN(C(=O)N3CC4(CC(n5cnc(C6CC6)n5)C4)C3)C2)cc1` (stereo not drawn) [Example 503, 1-[4-[1-[6-(3-cyclopropyl-1,2,4-triazol-1-yl)-2-azaspiro[3.3]heptane-2-carbonyl]azetidin-3-yl]phenyl]-4,4-difluoro-piperidine-2-carboxamide] was tested. Which pIC50 did it give?
A: 8.82

Q: With `CC1(O)CN(c2ccc(C3CN(C(=O)N4CC5(CC(n6cnc(C7CC7)n6)C5)C4)C3)cn2)C1` [Example 504, [6-(3-cyclopropyl-1,2,4-triazol-1-yl)-2-azaspiro[3.3]heptan-2-yl]-[3-[6-(3-hydroxy-3-methyl-azetidin-1-yl)-3-pyridyl]azetidin-1-yl]methanone] as the molecule, how does the pIC50 read?
A: 7.86

Q: How did the pIC50 turn out when `O=C(N1CC(c2ccc(NC3CCS(=O)(=O)C3)nc2)C1)N1CC2(CC(n3cnc(C4CC4)n3)C2)C1` (stereo not drawn) [Example 505, [6-(3-cyclopropyl-1,2,4-triazol-1-yl)-2-azaspiro[3.3]heptan-2-yl]-[3-[6-[(1,1-dioxothiolan-3-yl)amino]-3-pyridyl]azetidin-1-yl]methanone] was run?
A: 7.49

Q: With `O=C(N1CCC(Oc2cccc(F)c2)CC1)N1CC2(CC(n3cnc(C4CC4)n3)C2)C1` [Example 506, [6-(3-cyclopropyl-1,2,4-triazol-1-yl)-2-azaspiro[3.3]heptan-2-yl]-[4-(3-fluorophenoxy)-1-piperidyl]methanone] as the molecule, how does the pIC50 read?
A: 7.12

Q: `O=C(N1CC(c2ccc(C3CCC3)cc2)C1)N1CC2(CC(n3cnc(C4CC4)n3)C2)C1` [Example 507, [3-(4-cyclobutylphenyl)azetidin-1-yl]-[6-(3-cyclopropyl-1,2,4-triazol-1-yl)-2-azaspiro[3.3]heptan-2-yl]methanone] was tested. Which pIC50 did it give?
A: 9.29

Q: With `Cc1cccc(F)c1CCC1CN(C(=O)N2CC3(CC(n4cnc(C5CC5)n4)C3)C2)C1` [Example 508, [6-(3-cyclopropyl-1,2,4-triazol-1-yl)-2-azaspiro[3.3]heptan-2-yl]-[3-[2-(2-fluoro-6-methyl-phenyl)ethyl]azetidin-1-yl]methanone] as the molecule, how does the pIC50 read?
A: 6.19

Q: How did the pIC50 turn out when `O=C(N1CC(/C=C/c2cccc(F)c2)C1)N1CC2(CC(n3cnc(C4CC4)n3)C2)C1` [Example 509, [6-(3-cyclopropyl-1,2,4-triazol-1-yl)-2-azaspiro[3.3]heptan-2-yl]-[3-[(E)-2-(3-fluorophenyl)vinyl]azetidin-1-yl]methanone] was run?
A: 7.39

Q: How did the pIC50 turn out when `O=C(N1CC2(CC(n3cnc(C4CC4)n3)C2)C1)N1CC2(CC(n3cnc(C4CC4)n3)C2)C1` [Example 510, bis[6-(3-cyclopropyl-1,2,4-triazol-1-yl)-2-azaspiro[3.3]heptan-2-yl]methanone] was run?
A: 8.34

Q: With `O=C(N1CC2(CCC(Cc3ccc(OC(F)F)nc3)CC2)C1)N1CC2(CC(c3cncc(F)c3)C2)C1` [Example 511, [7-[[6-(difluoromethoxy)-3-pyridyl]methyl]-2-azaspiro[3.5]nonan-2-yl]-[6-(5-fluoro-3-pyridyl)-2-azaspiro[3.3]heptan-2-yl]methanone] as the molecule, how does the pIC50 read?
A: 6.78

Q: With `O=C(N1CC(Oc2ccc(C(F)(F)F)c(C3CC3)c2)C1)N1CC2(CC(c3cncc(F)c3)C2)C1` [Example 512] as the molecule, how does the pIC50 read?
A: 6.45

Q: With `O=C(N1CC(OCc2ccc(F)cc2Cl)C1)N1CC2(CC(c3cncc(F)c3)C2)C1` [Example 513, [3-[(2-chloro-4-fluoro-phenyl)methoxy]azetidin-1-yl]-[6-(5-fluoro-3-pyridyl)-2-azaspiro[3.3]heptan-2-yl]methanone] as the molecule, how does the pIC50 read?
A: 5.63

Q: With `O=C(N1CC(NCc2ccc(C(F)(F)F)cc2Cl)C1)N1CC2(CC(c3cncc(F)c3)C2)C1` [Example 514, [3-[[2-chloro-4-(trifluoromethyl)phenyl]methylamino]azetidin-1-yl]-[6-(5-fluoro-3-pyridyl)-2-azaspiro[3.3]heptan-2-yl]methanone] as the molecule, how does the pIC50 read?
A: 7.05

Q: How did the pIC50 turn out when `O=C(N1CC2(CC(Cc3ccc(C(F)(F)F)nc3)C2)C1)N1CC2(CC(c3cncc(F)c3)C2)C1` [Example 515, [6-(5-fluoro-3-pyridyl)-2-azaspiro[3.3]heptan-2-yl]-[6-[[6-(trifluoromethyl)-3-pyridyl]methyl]-2-azaspiro[3.3]heptan-2-yl]methanone] was run?
A: 7.02

Q: With `O=C(N1CC2(CCC(Cc3ccc(F)cn3)CC2)C1)N1CC2(CC(c3ccc(C(F)(F)F)nc3)C2)C1` [Example 516, [7-[(5-fluoro-2-pyridyl)methyl]-2-azaspiro[3.5]nonan-2-yl]-[6-[6-(trifluoromethyl)-3-pyridyl]-2-azaspiro[3.3]heptan-2-yl]methanone] as the molecule, how does the pIC50 read?
A: 6.16

Q: `O=C(N1CC2(CCC(Cc3ccc(Cl)cn3)CC2)C1)N1CC2(CC(c3ccc(C(F)(F)F)nc3)C2)C1` [Example 517, [7-[(5-chloro-2-pyridyl)methyl]-2-azaspiro[3.5]nonan-2-yl]-[6-[6-(trifluoromethyl)-3-pyridyl]-2-azaspiro[3.3]heptan-2-yl]methanone] was tested. Which pIC50 did it give?
A: 6.52

Q: With `COc1cc(C(F)(F)F)ccc1CNC1CN(C(=O)N2CC3(CC(c4ccc(C(F)(F)F)nc4)C3)C2)C1` [Example 518, [3-[[2-methoxy-4-(trifluoromethyl)phenyl]methylamino]azetidin-1-yl]-[6-[6-(trifluoromethyl)-3-pyridyl]-2-azaspiro[3.3]heptan-2-yl]methanone] as the molecule, how does the pIC50 read?
A: 6.21

Q: How did the pIC50 turn out when `O=C(N1CC2(CC(Cc3cnc(C(F)(F)F)cn3)C2)C1)N1CC2(CC(c3ccc(C(F)(F)F)nc3)C2)C1` [Example 519, [6-[[5-(trifluoromethyl)pyrazin-2-yl]methyl]-2-azaspiro[3.3]heptan-2-yl]-[6-[6-(trifluoromethyl)-3-pyridyl]-2-azaspiro[3.3]heptan-2-yl]methanone] was run?
A: 6.81

Q: `O=C(N1CC(OCc2ccc(S(=O)(=O)C(F)(F)F)cc2)C1)N1CC2(CC(c3ccc(C(F)(F)F)nc3)C2)C1` [Example 520, [6-[6-(trifluoromethyl)-3-pyridyl]-2-azaspiro[3.3]heptan-2-yl]-[3-[[4-(trifluoromethylsulfonyl)phenyl]methoxy]azetidin-1-yl]methanone] was tested. Which pIC50 did it give?
A: 6.26

Q: `O=C(N1CC2(CCC(Cc3ccc(OC(F)F)nc3)CC2)C1)N1CC2(CC(c3ccc(C(F)(F)F)nc3)C2)C1` [Example 521, [7-[[6-(difluoromethoxy)-3-pyridyl]methyl]-2-azaspiro[3.5]nonan-2-yl]-[6-[6-(trifluoromethyl)-3-pyridyl]-2-azaspiro[3.3]heptan-2-yl]methanone] was tested. Which pIC50 did it give?
A: 6.42

Q: How did the pIC50 turn out when `O=C(N1CC2(CC(c3ccc(C(F)(F)F)nc3)C2)C1)N1CC2(CC(c3ccc(C(F)(F)F)nc3)C2)C1` [Example 522, bis[6-[6-(trifluoromethyl)-3-pyridyl]-2-azaspiro[3.3]heptan-2-yl]methanone] was run?
A: 6.07

Q: With `O=C(N1CC(c2ccc(N3CC(C(F)(F)F)C3)nc2)C1)N1CC2(CC(c3ccc(C(F)(F)F)nc3)C2)C1` [Example 523, [3-[6-[3-(trifluoromethyl)azetidin-1-yl]-3-pyridyl]azetidin-1-yl]-[6-[6-(trifluoromethyl)-3-pyridyl]-2-azaspiro[3.3]heptan-2-yl]methanone] as the molecule, how does the pIC50 read?
A: 6.41

Q: With `O=C(N1CC2(CC(Cc3ccc(C(F)(F)F)nc3)C2)C1)N1CC2(CC(c3ccc(C(F)(F)F)nc3)C2)C1` [Example 524, [6-[6-(trifluoromethyl)-3-pyridyl]-2-azaspiro[3.3]heptan-2-yl]-[6-[[6-(trifluoromethyl)-3-pyridyl]methyl]-2-azaspiro[3.3]heptan-2-yl]methanone] as the molecule, how does the pIC50 read?
A: 7.13

Q: `O=C(N1CC2(CC(Oc3ccc(C(F)(F)F)nc3)C2)C1)N1CC2(CC(c3ccc(C(F)(F)F)nc3)C2)C1` [Example 525, [6-[6-(trifluoromethyl)-3-pyridyl]-2-azaspiro[3.3]heptan-2-yl]-[6-[[6-(trifluoromethyl)-3-pyridyl]oxy]-2-azaspiro[3.3]heptan-2-yl]methanone] was tested. Which pIC50 did it give?
A: 6.16

Q: `O=C(N1CC2(CC(c3ccc(C(F)(F)F)nc3)C2)C1)N1CC2(CN(Cc3ccc(S(=O)(=O)C(F)(F)F)cc3)C2)C1` [Example 526, [6-[6-(trifluoromethyl)-3-pyridyl]-2-azaspiro[3.3]heptan-2-yl]-[6-[[4-(trifluoromethylsulfonyl)phenyl]methyl]-2,6-diazaspiro[3.3]heptan-2-yl]methanone] was tested. Which pIC50 did it give?
A: 6.45

Q: How did the pIC50 turn out when `O=C(N1CC(c2ccc(NCC3(C(F)(F)F)CC3)nc2)C1)N1CC2(CC(c3ccc(C(F)(F)F)nc3)C2)C1` [Example 527] was run?
A: 7.29

Q: How did the pIC50 turn out when `O=C(N1CC(Oc2ccc(C(F)(F)F)c(C3CC3)c2)C1)N1CC2(CC(c3ccc(C(F)(F)F)nc3)C2)C1` [Example 528] was run?
A: 6.61

Q: How did the pIC50 turn out when `CS(=O)(=O)c1cccc(CC2CC3(C2)CN(C(=O)N2CC4(CC(c5ccc(C(F)(F)F)nc5)C4)C2)C3)c1` [Example 529, [6-[(3-methylsulfonylphenyl)methyl]-2-azaspiro[3.3]heptan-2-yl]-[6-[6-(trifluoromethyl)-3-pyridyl]-2-azaspiro[3.3]heptan-2-yl]methanone] was run?
A: 6.72

Q: With `CS(=O)(=O)c1ccc(CC2CC3(C2)CN(C(=O)N2CC4(CC(c5ccc(C(F)(F)F)nc5)C4)C2)C3)cc1` [Example 530, [6-[(4-methylsulfonylphenyl)methyl]-2-azaspiro[3.3]heptan-2-yl]-[6-[6-(trifluoromethyl)-3-pyridyl]-2-azaspiro[3.3]heptan-2-yl]methanone] as the molecule, how does the pIC50 read?
A: 6.46

Q: With `O=C(N1CC(NCc2ccc(C(F)(F)F)cc2Cl)C1)N1CC2(CC(c3ccc(C(F)(F)F)nc3)C2)C1` [Example 531] as the molecule, how does the pIC50 read?
A: 5.89

Q: How did the pIC50 turn out when `CS(=O)(=O)c1ccc(CC2CC3(C2)CN(C(=O)N2CC4(CC(c5ccc(C(F)(F)F)nc5)C4)C2)C3)cc1C(F)(F)F` [Example 532, [6-[[4-methylsulfonyl-3-(trifluoromethyl)phenyl]methyl]-2-azaspiro[3.3]heptan-2-yl]-[6-[6-(trifluoromethyl)-3-pyridyl]-2-azaspiro[3.3]heptan-2-yl]methanone] was run?
A: 6.88
